Test results published in patent US10765114B2, “4-amino-6-(pyridyl and 2-substitutedphenyl)-picolinates and 6-amino-2-(pyridyl and 2-substitutedphenyl)-pyrimidine-4-carboxylates and their use as herbicides” (Dow AgroSciences LLC, priority 2013, dated 2020).

Columns and labels:
Experiment in all cases: Post-Emergent Test III (Wheat and Barley)
ALOMY (blackgrass) = format: in vivo, Alopecurus myosuroides; settings: for pest or weed control at 35 g/ha / pest or weed control at 70 g/ha / pest or weed control at 140 g/ha: Alopecurus myosuroides, post-emergence, 504 h, postemergence, read-out: Visual Growth Reduction (%) 21 Days After Application, ALOMY; for pest or weed control at 35 g/ha: 35 g ai/ha; for pest or weed control at 70 g/ha: 70 g ai/ha; for pest or weed control at 140 g/ha: 140 g ai/ha; for GR50, ALOMY: effective dose for growth reduction of 50 percent; for GR50, ALOMY / GR80, ALOMY: probit analysis; for GR80, ALOMY: effective dose for growth reduction of 80 percent
Experimental: (§1) Seeds of the desired test plant species were planted in Sun Gro MetroMix® 306 planting mixture, which typically has a pH of 6.0 to 6.8 and an organic matter content of about 30 percent, in plastic pots with a surface area of 103.2 square centimeters (cm^2). When required to ensure good germination and healthy plants, a fungicide treatment and/or other chemical or physical treatment was applied. The plants were grown for 7-36 days in a greenhouse with an approximate 14 h photoperiod which was maintained at about 18° C. during the day and 17° C. during the night. Nutrients and water were added on a regular basis and supplemental lighting was provided with overhead metal halide 1000-Watt lamps as necessary. The plants were employed for testing when they reached the second or third true leaf stage.
(§2) A weighed amount, determined by the highest rate to be tested, of each test compound was placed in a 25 mL glass vial and was dissolved in 4 mL of a 97:3 v/v mixture of acetone and DMSO to obtain concentrated stock solutions. […] The concentrated stock solutions obtained were diluted with 20 mL of an aqueous mixture containing acetone, water, isopropyl alcohol, DMSO, Agri-Dex crop oil concentrate, and X-77 surfactant in a 48:39:10:1.5:1.5:0.02 v/v ratio to obtain spray solutions containing the highest application rates. Additional application rates were obtained by serial dilution of 12 mL of the high rate solution into a solution containing 2 mL of 97:3 v/v mixture of acetone and DMSO and 10 mL of an aqueous mixture containing acetone, water, isopropyl alcohol, DMSO, Agri-Dex crop oil concentrate, and X-77 surfactant in a 48:39:10:1.5:1.5:0.02 v/v ratio to obtain ½×, ¼×, ⅛× and 1/16× rates of the high rate. Compound requirements are based upon a 12 mL application volume at a rate of 187 liters per hectare (L/ha). Formulated compounds were applied to the plant material with an overhead Mandel track sprayer equipped with 8002E nozzles calibrated to deliver 187 L/ha over an application area of 0.503 square meters at a spray height of 18 inches (43 cm) above the average plant canopy height. Control plants were sprayed in the same manner with the solvent blank.
(§3) The treated plants and control plants were placed in a greenhouse as described above and watered by subirrigation to prevent wash-off of the test compounds. After 21 dAYS, the condition of the test plants as compared with that of the untreated plants was determined visually and scored on a scale of 0 to 100 percent where 0 corresponds to no injury and 100 corresponds to complete kill and presented as indicated in Table A.
(§4) By applying the well-accepted probit analysis as described by J. Berkson in Journal of the American Statistical Society, 48, 565 (1953) and by D. Finney in “Probit Analysis” Cambridge University Press (1952), herbicidal injury of a specific compound at various rates can be used to calculate GR10, GR20, GR50, GR80 and GR90 values, which are defined as growth reduction factors that correspond to the effective dose of herbicide required to provide plant growth reduction (GR) of 10 percent, 20 percent, 50 percent, 80 percent and 90 percent, respectively. Probit analysis was applied to data collected from multiple dose rates of individual compounds utilizing the procedures explained in the following examples. The analysis of those dose rates is captured in the following tables.

PAPRH (common poppy) = format: in vivo, Papaver rhoeas; settings: for GR50, PAPRH / GR80, PAPRH / GR90, PAPRH: probit analysis
Experimental: as §1, §2, §3, §4

[1] = tested on: VERPE (Persian speedwell); format: in vivo, Veronica persica; settings: for GR50, VERPE / GR80, VERPE / GR90, VERPE: probit analysis
Experimental: as §1, §2, §3, §4

BROTE (downy brome) = format: in vivo, Bromus tectorum; settings: for Visual Growth Reduction (%) 21 Days After Application, BROTE: postemergence
Experimental: as §1, §2, §3, §4

[2] = tested on: PHAMI (littleseed canarygrass); format: in vivo, Phalaris minor; settings: for Visual Growth Reduction (%) 21 Days After Application, PHAMI: postemergence
Experimental: as §1, §2, §3, §4

[3] = PAPRH common poppy (Papaver rhoeas), 17.5 g ai/ha, post-emergent
[4] = PAPRH common poppy (Papaver rhoeas), 35 g ai/ha, post-emergent
[5] = PAPRH common poppy (Papaver rhoeas), 70 g ai/ha, post-emergent
[6] = PAPRH, growth reduction of 50%, 21 days
[7] = PAPRH, growth reduction of 80%, 21 days
[8] = PAPRH, growth reduction of 90%, 21 days
[9] = VERPE bird's-eye speedwell (Veronica persica), 17.5 g ai/ha, post-emergent
[10] = VERPE bird's-eye speedwell (Veronica persica), 35 g ai/ha, post-emergent
[11] = VERPE bird's-eye speedwell (Veronica persica), 70 g ai/ha, post-emergent
[12] = VERPE, growth reduction of 50%, 21 days
[13] = VERPE, growth reduction of 80%, 21 days
[14] = VERPE, growth reduction of 90%, 21 days
[15] = effective dose for growth reduction of 50 percent, probit analysis
[16] = effective dose for growth reduction of 80 percent, probit analysis
[17] = effective dose for growth reduction of 90 percent, probit analysis
[18] = effective dose for growth reduction of 50 percent
[19] = effective dose for growth reduction of 80 percent
[20] = effective dose for growth reduction of 90 percent

Work on `COC(=O)c1nc(-c2ccc(Cl)c(F)c2OC)cc(N)c1Cl` [Compound 20] yielded a pest or weed control at 35 g/ha (ALOMY (blackgrass)) of 45 to 59%, a pest or weed control at 70 g/ha (ALOMY (blackgrass)) of 75 to 84% and a pest or weed control at 140 g/ha (ALOMY (blackgrass)) of 85 to 94%. For the same compound, the “GR50, ALOMY” value (ALOMY (blackgrass)) was 86 g ai/ha and the “GR80, ALOMY” value (ALOMY (blackgrass)) was >140 g ai/ha.
In the case of `COC(=O)c1nc(-c2ccc(Br)nc2)c(F)c(N)c1Cl` [Compound 22, methyl 4-amino-6′-bromo-5-chloro-3-fluoro-[2,3′-bipyridine]-6-carboxylate], the “Visual Growth Reduction (%) 21 Days After Application, PAPRH” value (PAPRH (common poppy); [3]) is reported as “A (95-100)”, the “Visual Growth Reduction (%) 21 Days After Application, PAPRH” value (PAPRH (common poppy); [4]) is reported as “A (95-100)” and the “Visual Growth Reduction (%) 21 Days After Application, PAPRH” value (PAPRH (common poppy); [5]) is reported as “A (95-100)”. The “GR50, PAPRH” value (PAPRH (common poppy); [6]) was 1 g ai/ha, the “GR80, PAPRH” value (PAPRH (common poppy); [7]) was 1 g ai/ha and the “GR90, PAPRH” value (PAPRH (common poppy); [8]) was 1 g ai/ha. The “Visual Growth Reduction (%) 21 Days After Application, VERPE” value [1, 9] was “D (60-74)”, the “Visual Growth Reduction (%) 21 Days After Application, VERPE” value [1, 10] was “C (75-84)” and the “Visual Growth Reduction (%) 21 Days After Application, VERPE” value [1, 11] was “A (95-100)”. For the same compound, the “GR50, VERPE” value [1, 12] was 9 g ai/ha, the “GR80, VERPE” value [1, 13] was 28 g ai/ha and the “GR90, VERPE” value [1, 14] was 50 g ai/ha.
In the case of `Cc1c(-c2cc(N)c(Cl)c(C(=O)O)n2)ccc(Cl)c1Cl` [Compound 28], the “Visual Growth Reduction (%) 21 Days After Application, PAPRH” value (PAPRH (common poppy); [3]) is reported as “G (0-29)”, the “Visual Growth Reduction (%) 21 Days After Application, PAPRH” value (PAPRH (common poppy); [4]) is reported as “G (0-29)” and the “Visual Growth Reduction (%) 21 Days After Application, PAPRH” value (PAPRH (common poppy); [5]) is reported as “G (0-29)”. For the same compound, the “GR50, PAPRH” value (PAPRH (common poppy); [6]) was >140 g ai/ha, the “GR80, PAPRH” value (PAPRH (common poppy); [7]) was >140 g ai/ha and the “GR90, PAPRH” value (PAPRH (common poppy); [8]) was >140 g ai/ha. The “Visual Growth Reduction (%) 21 Days After Application, VERPE” value [1, 9] was “G (0-29)”, the “Visual Growth Reduction (%) 21 Days After Application, VERPE” value [1, 10] was “F (30-44)” and the “Visual Growth Reduction (%) 21 Days After Application, VERPE” value [1, 11] was “E (45-59)”. For the same compound, the “GR50, VERPE” value [1, 12] was 63 g ai/ha, the “GR80, VERPE” value [1, 13] was 111 g ai/ha and the “GR90, VERPE” value [1, 14] was >140 g ai/ha.
For `Nc1c(Cl)c(C(=O)O)nc(-c2ccc(C(F)(F)F)nc2)c1Cl` [Compound 33], the pest or weed control at 35 g/ha (ALOMY (blackgrass)) was 60 to 74%, the pest or weed control at 70 g/ha (ALOMY (blackgrass)) was 75 to 84% and the pest or weed control at 140 g/ha (ALOMY (blackgrass)) was 85 to 94%. For the same compound, the “GR50, ALOMY” value (ALOMY (blackgrass)) was 37 g ai/ha and the “GR80, ALOMY” value (ALOMY (blackgrass)) was 72 g ai/ha.
In the case of `Nc1c(F)c(-c2ccc(C3CC3)nc2)nc(C(=O)O)c1Cl` [Compound 36, 4-amino-5-chloro-6′-cyclopropyl-3-fluoro-[2,3′-bipyridine]-6-carboxylic acid], the pest or weed control at 35 g/ha (ALOMY (blackgrass)) is reported as 0 to 29%, the pest or weed control at 70 g/ha (ALOMY (blackgrass)) is reported as 30 to 44% and the “GR50, ALOMY” value (ALOMY (blackgrass)) is reported as 126 g ai/ha. For the same compound, the “GR80, ALOMY” value (ALOMY (blackgrass)) was >140 g ai/ha.
Compound `COC(=O)c1nc(-c2ccc(Cl)c(F)c2OC)c(F)c(N)c1Cl` [Compound 39, methyl 4-amino-3-chloro-6-(4-chloro-3-fluoro-2-methoxyphenyl)-5-fluoropicolinate] has a pest or weed control at 35 g/ha (ALOMY (blackgrass)) of 0 to 29%, a pest or weed control at 70 g/ha (ALOMY (blackgrass)) of 30 to 44% and a pest or weed control at 140 g/ha (ALOMY (blackgrass)) of 30 to 44%. The “GR50, ALOMY” value (ALOMY (blackgrass)) was >140 g ai/ha and the “GR80, ALOMY” value (ALOMY (blackgrass)) was >140 g ai/ha.
`Nc1c(F)c(-c2ccc(C(F)(F)F)nc2)nc(C(=O)O)c1Cl` [Compound 46, 4-amino-5-chloro-3-fluoro-6′-(trifluoromethyl)-[2,3′-bipyridine]-6-carboxylic acid] was tested, and the “Visual Growth Reduction (%) 21 Days After Application, BROTE” value (BROTE (downy brome); 35 g ai/ha) was “E (45-59)”, the “Visual Growth Reduction (%) 21 Days After Application, BROTE” value (BROTE (downy brome); 70 g ai/ha) was “D (60-74)” and the “Visual Growth Reduction (%) 21 Days After Application, BROTE” value (BROTE (downy brome); 140 g ai/ha) was “B (85-94)”. The “GR50, BROTE” value (BROTE (downy brome); [15]) was 42 g ai/ha, the “GR80, BROTE” value (BROTE (downy brome); [16]) was 93 g ai/ha and the “GR90, BROTE” value (BROTE (downy brome); [17]) was 140 g ai/ha. For the same compound, the “Visual Growth Reduction (%) 21 Days After Application, PAPRH” value (PAPRH (common poppy); 35 g ai/ha, postemergence) was “A (95-100)”, the “Visual Growth Reduction (%) 21 Days After Application, PAPRH” value (PAPRH (common poppy); 70 g ai/ha, postemergence) was “A (95-100)” and the “Visual Growth Reduction (%) 21 Days After Application, PAPRH” value (PAPRH (common poppy); 140 g ai/ha, postemergence) was “A (95-100)”. For the same compound, the “GR50, PAPRH” value (PAPRH (common poppy); [18]) was 2 g ai/ha, the “GR80, PAPRH” value (PAPRH (common poppy); [19]) was 8 g ai/ha and the “GR90, PAPRH” value (PAPRH (common poppy); [20]) was 16 g ai/ha. For the same compound, the “Visual Growth Reduction (%) 21 Days After Application, PHAMI” value ([2]; 35 g ai/ha) was “B (85-94)”, the “Visual Growth Reduction (%) 21 Days After Application, PHAMI” value ([2]; 70 g ai/ha) was “B (85-94)” and the “Visual Growth Reduction (%) 21 Days After Application, PHAMI” value ([2]; 140 g ai/ha) was “B (85-94)”. The “GR50, PHAMI” value [2, 15] was 15 g ai/ha, the “GR80, PHAMI” value [2, 16] was 24 g ai/ha and the “GR90, PHAMI” value [2, 17] was 31 g ai/ha. For the same compound, the “Visual Growth Reduction (%) 21 Days After Application, VERPE” value ([1]; 35 g ai/ha, postemergence) was “A (95-100)”, the “Visual Growth Reduction (%) 21 Days After Application, VERPE” value ([1]; 70 g ai/ha, postemergence) was “A (95-100)” and the “Visual Growth Reduction (%) 21 Days After Application, VERPE” value ([1]; 140 g ai/ha, postemergence) was “A (95-100)”. The “GR50, VERPE” value [1, 18] was 1 g ai/ha, the “GR80, VERPE” value [1, 19] was 2 g ai/ha and the “GR90, VERPE” value [1, 20] was 8 g ai/ha.
